Test results published in patent publication US20090105263A1, “HETEROBICYCLIC COMPOUNDS AS GLUCOKINASE ACTIVATORS” (priority 2005, published 2009).

Target: T1, recombinant human pancreatic GLK (Homo sapiens, UniProt P35557)
T1 sequence (P35557 1-465): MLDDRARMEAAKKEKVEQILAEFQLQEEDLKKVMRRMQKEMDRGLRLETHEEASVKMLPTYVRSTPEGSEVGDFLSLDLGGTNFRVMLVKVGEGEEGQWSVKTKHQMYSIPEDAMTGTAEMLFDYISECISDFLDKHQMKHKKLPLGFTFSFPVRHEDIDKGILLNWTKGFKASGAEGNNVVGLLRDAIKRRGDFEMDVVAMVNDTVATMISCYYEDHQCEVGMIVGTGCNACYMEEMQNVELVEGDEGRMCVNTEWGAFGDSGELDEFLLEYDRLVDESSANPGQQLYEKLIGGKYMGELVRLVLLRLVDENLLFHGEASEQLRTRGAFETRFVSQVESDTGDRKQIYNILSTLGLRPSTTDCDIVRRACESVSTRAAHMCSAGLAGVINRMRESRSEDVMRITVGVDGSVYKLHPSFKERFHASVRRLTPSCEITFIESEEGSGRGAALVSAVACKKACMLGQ
Experiment: biochemical

## COC[C@H](C)Oc1cc(OCc2ccccc2)cc(-c2cc3cccnc3[nH]2)c1 [Example 1, 2-[3-(Benzyloxy)-5-[(1S)-2-methoxy-1-methylethoxy]phenyl]-1H-pyrrolo[2,3-b]pyridine]
  EC50: 120 nM
